Assay results from US8512971B2, “Compounds and methods of use thereof for assaying lysophospholipase D activity” (Echelon Biosciences, Inc., priority 2002, dated 2013).

Columns and labels:
[1] = molecular target: T1, purified lysoPLD from human serum (Homo sapiens, UniProt Q13822); conditions: cited from earlier work
T1 construct: The purified lysoPLD from human serum; host or cells: human serum (purified; values quoted from Tokumura et al., J. Biol. Chem. 277:39436-42, 2002)

lysoPLD = lysoPLD (Bos taurus, UniProt A1A4K5); conditions: 25° C.
Procedure: FIG. 9 illustrates the evaluation of the fluorogenic substrate FS-1 using fetal bovine serum which is known to be a rich source of LPA that is “self-regenerating” through the in situ activity of lysoPLD. (Umezu-Goto, et al., Journal of Cell Biology, 158:227-33. (2002)) A 10 mM stock solution of FS-1 in MeOH was added to 50 μL solutions of 1% or 10% FBS in PBS and incubated at 25° C. overnight. Measurements were taken on a Hewlett Packard Fusion instrument at 1, 3, 5, and 18 hours.

## CCCCCCCCCCCCCCCC(=O)OC[C@@H](O)COP(=O)([O-])OCC[N+](C)(C)C [16:0 LPC]
[1]
  Km: 260 µM
  Vmax: 103 nmol/min

## DABCYL-aminoethyl (N-BODIPY-FL®-aminocaproyl)-2-tert-buiylglycerylphosphate [FS-1]
lysoPLD; 1% or 10% FBS in PBS, read at 1, 3, 5 and 18 hours, unoptimized assay
  fluorescence change on cleavage of the quenched substrate: increase in fluorescence with time
lysoPLD; FBS in PBS
  substrate concentration of optimal conversion: 100 µM
